Assay: Solubility of agrochemical active ingredients in the solvent compositions: visual observation at 25° C., at 0° C. for 7 days (CIPAC MT39), and at 0° C. with nucleation
Type: physicochemical
Settings: tebuconazole 300 g/L EC
Experimental: 1. Description of the Tests Performed: The formulations were prepared by dilution of various active ingredients reported in the table here below in the compositions 1 to 4 (solvents according to the invention) synthesised here above: a) Visual observation at 25° C.: the appearance of the formulation is noted and the possible presence of crystals is eventually recorded. b) Visual observation at 0° C.: the formulation is placed for a period of 7 days at 0° C. and the appearance of the formulation is noted and the possible presence of crystals is eventually recorded (CIPAC test MT39). c) Visual observation at 0° C. with nucleation (for introduction into the liquid of a crystal of the pure active ingredient): […] The appearance of the formulation is noted and the possible presence of crystals or growth of the crystal introduced is eventually recorded. The active ingredients used are commercially available.

Compound: CN1CCCC1=O [Solvent 6, N-methylpyrrolidone]
- State of the solution at +25° C.: Clear
- State of the solution at 0° C. (7 days at 0° C.): Clear
- State of the solution at 0° C. after seeding (crystal introduced, further 7 days at 0° C.): Crystal

From patent US9420780B2, “Composition, method for producing the composition, and phytosanitary formulation containing same” (RHODIA OPERATIONS, priority 2011, dated 2016)
